Data published in patent publication US5158940A (priority 1990, dated 1992).
Where a name gives a salt, the structure may show the parent alone.

What was measured:
rheumatoid arthritis = format: in vivo, person
Source text: A person was initially diagnosed in 1975 with polyarthritis and an elevated serum rheumatoid factor level. Since then, the patient had required almost uninterrupted treatment with either supraphysiologic doses of steroid or remission-inducing agents. These included hydroxycloroquine, gold salts, cytoxan and most recently, penicillamine together with prednisone.
Prior to initiating suramin therapy, penicillamine and prednisone were discontinued and the patient was placed on physiologic replacement doses of hydrocortisone. […] Their serum rheumatoid factor titer was 1:2560. Serum antinuclear antibodies were absent and both anti-DNA screen and LE cell test were negative.

[1] = in vivo; cited from earlier work
[2] = tested on: reverse transcriptase enzyme; details: in vitro; JAMA 258 p. 1347-51 (1987); cited from earlier work
[3] = tested on: human immunodeficiency virus (HIV); details: in vitro; JAMA 258 p. 1347-51 (1987); cited from earlier work
various growth factors = details: in vitro; J. Cellular Physiology 132 p. 143-8 (1987); cited from earlier work
[4] = tested on: cytoplasmic and intranuclear enzymes; details: Cancer Res. 47 p. 4694-8 (1987) and J. Clin. Onc. 7 p. 499-508 (1989); cited from earlier work
parasitic infections = details: one gram bolus parenterally once per week for six weeks, total six grams; cited from earlier work
[5] = nine months after initial start, no suramin after third cycle at six months
[6] = treatment period plus three months afterwards without suramin

Question: For `Cc1ccc(C(=O)Nc2ccc(S(=O)(=O)O)c3cc(S(=O)(=O)O)cc(S(=O)(=O)O)c23)cc1NC(=O)c1cccc(NC(=O)Nc2cccc(C(=O)Nc3cc(C(=O)Nc4ccc(S(=O)(=O)O)c5cc(S(=O)(=O)O)cc(S(=O)(=O)O)c45)ccc3C)c2)c1` [Suramin, hexasodium salt of 8,8'-(carbonyl-bis(imino-3,1-phenylenecarbonylimino(4-methyl-3,1-phenylene)carbonylimo))bis-1,3,5-naphthalenetrisulfonic acid], which “formal rheumatologic evaluation (inflammatory joint disease, synovial proliferation)” value (rheumatoid arthritis; at the end of therapy) is on record?
Answer: Its value is “virtually no inflammatory joint disease with only minimal synovial proliferation in the ulnar carpal region of their right wrist”.

Question: What about the “joint abnormalities in follow up hand photograph” value (rheumatoid arthritis; follow up hand photograph) of the same compound?
Answer: The value was “failed to show any significant change in their minimal joint abnormalities”.

Question: And the “hematologic, hepatic or renal toxicity” value (rheumatoid arthritis; in vivo)?
Answer: The value was “did not experience any significant hematologic, hepatic or renal toxicity”.

Question: What about the “size of rheumatoid nodules” value (rheumatoid arthritis; initially documented after three months, more pronounced at five months) of the same compound?
Answer: The value was “regression in the size of their multiple rheumatoid nodules”.

Question: And the “arthritic symptoms at nine months” value (rheumatoid arthritis; [5])?
Answer: Its value is “continued to remain without arthritic symptoms”.

Question: What about the “size of remaining rheumatoid nodules” value (rheumatoid arthritis; [5]) of the same compound?
Answer: Its value is “remained unchanged”.

Question: What about the “disappearance of rheumatoid nodules” value (rheumatoid arthritis; start of third cycle at five months) of the same compound?
Answer: The value was “complete disappearance of as many as a third”.

Question: What about the arthritic symptoms (rheumatoid arthritis; [6]) of the same compound?
Answer: Its arthritic symptoms is “improvement in their arthritic symptoms”.

Question: And the synovial swelling (rheumatoid arthritis; [6])?
Answer: The synovial swelling was “decreased synovial swelling”.

Question: What about the plasma half-life [1] of the same compound?
Answer: The plasma half-life was 45 to 55 days.

Question: And the “ability to inhibit the reverse transcriptase enzyme” value [2]?
Answer: Its value is “inhibit the reverse transcriptase enzyme”.

Question: And the “ability to revert the cytopathic effect of HIV” value [3]?
Answer: Its value is “revert the cytopathic effect of human immunodeficiency virus (HIV) in vitro”.

Question: What about the “ability to inhibit the activity of various growth factors” value (various growth factors) of the same compound?
Answer: Its value is “inhibit the activity of various growth factors in vitro”.

Question: And the “binding to a variety of cytoplasmic and intranuclear enzymes” value [4]?
Answer: Its value is “bind to a variety of cytoplasmic and intranuclear enzymes”.

Question: What about the “effectiveness for treating parasitic infections” value (parasitic infections) of the same compound?
Answer: Its value is “generally effective for treating parasitic infections”.
